Target: T1, human CARM1 (PRMT4) (Flag- and His-tagged) (Homo sapiens, UniProt Q86X55)
T1 construct: Flag-CARM1-His; made in house; host or cells: HEK 293F cells (BacMam baculovirus)
T1 sequence (Q86X55 1-585 isoform Q86X55-1): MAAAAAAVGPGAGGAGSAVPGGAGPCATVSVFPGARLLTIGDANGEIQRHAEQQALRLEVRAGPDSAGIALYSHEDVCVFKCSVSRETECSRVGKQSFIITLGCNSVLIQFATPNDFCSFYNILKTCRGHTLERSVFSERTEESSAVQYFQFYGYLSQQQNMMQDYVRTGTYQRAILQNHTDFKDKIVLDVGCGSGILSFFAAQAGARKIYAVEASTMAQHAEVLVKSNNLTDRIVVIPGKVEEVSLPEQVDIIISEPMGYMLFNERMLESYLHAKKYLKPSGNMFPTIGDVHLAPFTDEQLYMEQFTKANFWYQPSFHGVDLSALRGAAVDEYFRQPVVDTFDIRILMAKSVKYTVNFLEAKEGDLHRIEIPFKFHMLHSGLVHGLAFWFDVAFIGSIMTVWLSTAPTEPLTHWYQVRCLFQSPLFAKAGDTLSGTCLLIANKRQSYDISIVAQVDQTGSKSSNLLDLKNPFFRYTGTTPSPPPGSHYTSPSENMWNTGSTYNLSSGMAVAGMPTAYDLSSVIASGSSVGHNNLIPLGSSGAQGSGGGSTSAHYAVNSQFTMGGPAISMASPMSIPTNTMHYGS
Experiment: CARM1 Biochemical Assay (3H-SAM Flashplate, peptide substrate)
Settings: single experiment or average of multiple experiments
From the text: General Materials. S-adenosylmethionine (SAM), S-adenosylhomocysteine (SAH), bicine, Tween20, dimethylsulfoxide (DMSO), bovine skin gelatin (BSG), sodium butyrate and Tris(2-carboxyethyl)phosphine hydrochloride solution (TCEP) were purchased from Sigma-Aldrich at the highest level of purity possible. ^3H-SAM was purchase from American Radiolabeled Chemicals with a specific activity of 80 Ci/mmol. 384-well streptavidin Flashplates were purchased from PerkinElmer.
Substrates. Peptide representative of human histone H3 residues 16-30 was synthesized with an N-terminal linker-affinity tag motif and a C-terminal amide cap by 21st Century Biochemicals. The peptide was purified by high-performance liquid chromatography (HPLC) to greater than 95% purity and confirmed by liquid chromatography mass spectrometry (LC-MS). The sequence was Biot-Ahx-[…]-amide and contained a monomethylated arginine at position 26 (SEQ ID NO.:14).
Molecular Biology: Human CARM1 (PRMT4) (NM_199141.1) transcript clone was amplified from an HEK 293 cDNA library, incorporating a flanking 5′ sequence encoding a FLAG tag ([…]) (SEQ ID NO.:6) fused directly to Ala 2 of CARM1 and 3′ sequence encoding a hexa His sequence ([…]) (SEQ ID NO.:15) fused directly to Ser 608. The gene sequence encoding isoform1 containing a deletion of amino acids 539-561 was amplified subsequently and subcloned into pFastBacMam (Viva Biotech).
Protein Expression. Recombinant baculovirus were generated according to Bac-to-Bac kit instructions (Life Technologies). […] Infections were carried out at 37° C. for 48 hours, harvested by centrifugation, and stored at −80° C. for purification.
Protein Purification. […] Column was washed with 500 mM NaCl in buffer A and Flag-CARM1-His was eluted with 200 ug/ml FLAG peptide in buffer A. Pooled fractions were dialyzed in 20 mM Tris, 150 mM NaCl, 5% glycerol and 1 mM DTT, pH 7.8. The purity of recovered protein was 94.
General Procedure for CARM1 Enzyme Assays on Peptide Substrates. The assays were all performed in a buffer consisting of 20 mM Bicine (pH=7.6), 1 mM TCEP, 0.005% BSG, and 0.002% Tween 20, prepared on the day of use. Compounds in 100% DMSO (1 ul) were spotted into a polypropylene 384-well V-bottom plates (Greiner) using a Platemate Plus outfitted with a 384-channel head (Thermo Scientific). DMSO (1 ul) was added to Columns 11, 12, 23, 24, rows A-H for the maximum signal control and 1 ul of SAH, a known product and inhibitor of CARM1, was added to columns 11, 12, 23, 24, rows I-P for the minimum signal control. A cocktail (40 ul) containing the CARM1 enzyme was added by Multidrop Combi (Thermo-Fisher). The compounds were allowed to incubate with CARM1 for 30 min at room temperature, then a cocktail (10 ul) containing ^3H-SAM and peptide was added to initiate the reaction (final volume=51 ul). The final concentrations of the components were as follows: CARM1 was 0.25 nM, ^3H-SAM was 30 nM, peptide was 250 nM, SAH in the minimum signal control wells was 1 mM, and the DMSO concentration was 2%. The assays were stopped by the addition of non-radiolabeled SAM (10 ul) to a final concentration of 300 uM, which dilutes the ^3H-SAM to a level where its incorporation into the peptide substrate is no longer detectable. 50 ul of the reaction in the 384-well polypropylene plate was then transferred to a 384-well Flashplate and the biotinylated peptides were allowed to bind to the streptavidin surface for at least 1 hour before being washed once with 0.1% Tween20 in a Biotek ELx405 plate washer. The plates were then read in a PerkinElmer TopCount plate reader to measure the quantity of ^3H-labeled peptide bound to the Flashplate surface, measured as disintegrations per minute (dpm) or alternatively, referred to as counts per minute (cpm).
Where dpm=disintegrations per minute, cmpd=signal in assay well, and min and max are the respective minimum and maximum signal controls. […]

- IC50: 1230 nM
Structure (SMILES): CNCCN(C)Cc1c[nH]nc1C#Cc1ccccc1 [Compound 3]

Source: US11512053B2, “Arginine methyltransferase inhibitors and uses thereof” (priority 2013, dated 2022)
